Data: patent US7078565B2, “Benzamide derivatives as antagonists of orexin receptors” (SmithKline Beecham plc, priority 2001, dated 2006)

What was measured:
[1] = tested on: freely-feeding rats; conditions: central administration, 4 hour time period; cited from earlier work
[2] = tested on: rat; assay: Rat sleep/EEG studies; assay type: in vivo; conditions: central administration at the onset of the normal sleep period; at the expense of paradoxical sleep and slow wave sleep 2
Description: Therefore antagonists of its receptors may be useful in the treatment of sleep disorders including insomnia.

For “orexin-A: peptide ligand for the orexin-1 receptor, an agonist of the orexin receptors; sequence given in b81 (QPLPDCCRQKTCSCRLYELLHGAGNHAAGILTL; not fully specified; Orexin-A; UniProt O43612 34-66, looked up)”, the “increase in food intake over control rats receiving vehicle” value [1] is listed as “approximately four-fold” and the arousal [2] is listed as “dose-related increase in arousal”.
